This assay has as its target endogenous wild-type p53 protein (Homo sapiens, UniProt P04637). Kind of assay: Degradation of endogenous wild-type p53 protein in HeLa cells, Western blot analysis. It counts as cell-based. Set-up: endogenous in cells. The protocol: HeLa cells were seeded in a 24-well plate at a cell density of 4×10^4 cells/well, and then cultured under conditions of 37° C. and 5 vol % CO2 for 16 hours.
After 16 hours from cell seeding, TIBC-CANDDY_MLN was added to HeLa cells as follows. […]
After electrophoresis, proteins were transferred to a PVDF membrane (Immobion™-P, Millipore) under conditions of 100 V and 2 hours using a tank-type blotting device and a transfer buffer (25 mM Tris-HCl, 195 mM glycine, 0.01% SDS, 15% methanol). […] Subsequently, the membrane was treated with a chemiluminescence reagent Immobilon™ Western (Millipore), and then chemiluminescence was detected using a lumino image analyzer LAS-3000 (FUJIFILM Corporation).
(In western blotting, separated proteins are transferred to a membrane and probed.)

Each structure is given as a SMILES string.

endogenous wild-type p53 protein, sequence (P04637 whole entry): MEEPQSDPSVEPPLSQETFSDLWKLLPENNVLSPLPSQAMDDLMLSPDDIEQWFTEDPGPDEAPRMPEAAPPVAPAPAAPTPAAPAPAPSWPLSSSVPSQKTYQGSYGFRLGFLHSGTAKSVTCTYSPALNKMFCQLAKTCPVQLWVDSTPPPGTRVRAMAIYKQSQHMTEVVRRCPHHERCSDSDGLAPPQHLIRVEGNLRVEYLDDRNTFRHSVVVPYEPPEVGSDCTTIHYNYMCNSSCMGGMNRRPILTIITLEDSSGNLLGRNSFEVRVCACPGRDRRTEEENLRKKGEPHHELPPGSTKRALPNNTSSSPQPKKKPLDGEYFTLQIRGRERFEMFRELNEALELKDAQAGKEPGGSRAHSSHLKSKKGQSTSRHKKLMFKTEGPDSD

In the case of `CC(C)C[C@H](NC(=O)CNC(=O)c1cc(Cl)ccc1Cl)C(=O)NCCCCCCC(=O)Nc1ccc(C(=O)/C=C/c2ccc(I)cc2)cc1` [TIBC-CANDDY_MLN], the “amount of endogenous wild-type p53 protein” value (24 hours after addition) was “the amount of the endogenous wild-type p53 protein was reduced”. Also, the “amount of wild-type p53 protein when MLN2238 is added together” value (both TIBC-CANDDY_MLN and MLN2238 added) was “the amount of the wild-type p53 protein was increased as compared with the control (DMSO)”.

For the origin of these results see US20190369111A1, “MOLECULAR KINETICS EVALUATION METHOD AND SCREENING METHOD” (Tokyo University of Science Foundation, priority 2016, published 2019).
